In patent EP1561465A2, “Methods of use of fluoroquinolone compounds against bacteria” (LG Life Sciences, Ltd., priority 1999, dated 2001):
≈ marks a conversion by molar mass, not a printed value.

How the values were obtained:
Streptococcus pneumoniae [1] = assay: MIC by broth microdilution (NCCLS), dried MicroScan panels, clinical isolates 1998-1999; format: cell-based; details: for MIC90: Streptococcus pneumoniae
Proteus vulgaris = assay: MIC by NCCLS broth microdilution, 1100 Japanese clinical isolates 1997-1998; format: cell-based
Streptococcus pneumoniae [2] = assay: MIC by E-test (broth microdilution for gemifloxacin), 107 pneumococcal carrier isolates, Athens 1998; format: cell-based; details: E-test; for MIC Range: in µg/mL (unit assumed); for MIC50 / MIC90: Streptococcus pneumoniae; for MIC50: read-out: MIC50; for MIC90: read-out: MIC90
Procedure: Susceptibility testing was performed by agar dilution or epsilometer method (E-test), as recommended by the NCCLS. […] The susceptibility profiles of the strains were assessed using the Epsilometer method (E-test). The isolates were subdivided into two groups according to their penicillin susceptibility patterns (penicillin-susceptible and penicillin-intermediate.

[3] = parameters: species or system healthy volunteers; details: human, in vivo, po
Proteus mirabilis = assay: MIC by NCCLS broth microdilution, 1100 Japanese clinical isolates 1997-1998; format: cell-based
Salmonella spp. = assay: as above; format: cell-based; details: Salmonella spp. (n=29)
P. aeruginosa = assay: Urinary bactericidal titers (UBT) and AUBTC of volunteers' urine; format: cell-based; details: P. aeruginosa (16) Laboratory No. 568; urine after gemifloxacin 320 mg or ofloxacin 400 mg
Providencia rettgeri = assay: MIC by NCCLS broth microdilution, 1100 Japanese clinical isolates 1997-1998; format: cell-based
S. aureus = assay: Urinary bactericidal titers (UBT) and AUBTC of volunteers' urine; format: cell-based; details: urine after gemifloxacin 320 mg or ofloxacin 400 mg
Streptococcus pneumoniae [4] = assay: MIC by NCCLS broth microdilution, 1100 Japanese clinical isolates 1997-1998; format: cell-based; details: for MIC50 / MIC90 / MIC: Streptococcus pneumoniae; for MIC50: read-out: MIC50; for MIC90: read-out: MIC90; for MIC: Streptococcus pneumoniae quinolone resistant
[5] = test system: Staphylococcus epidermidis; assay: as above; format: cell-based; details: Staphylococcus epidermidis oxacillin resistant (n=43)
[6] = Streptococcus pneumoniae (302 isolates)
[7] = Penicillin-intermediate S. pneumoniae (n = 24)
[8] = Penicillin-susceptible S. pneumoniae (n = 107)
[9] = Streptococcus pneumoniae amoxicillin resistant (n=40)
[10] = Streptococcus pneumoniae amoxicillin susceptible (n=35)
[11] = Streptococcus pneumoniae erythromycin resistant (n=34)
[12] = Streptococcus pneumoniae erythromycin susceptible (n=11)

SMILES: CO/N=C1\CN(c2nc3c(cc2F)c(=O)c(C(=O)O)cn3C2CC2)CC1CN (racemic) [Gemifloxacin, (R,S)-7-(3-aminomethyl-4-methoxyiminopyrrolidin-1-yl)-1-cyclopropyl-6-fluoro-4-oxo-1,4-dihydro-1,8-naphthyridine-3-carboxylic acid]
- more active than grepafloxacin (Streptococcus pneumoniae [1]; S. pneumoniae): two-fold
- more active than levofloxacin (Streptococcus pneumoniae [1]; S. pneumoniae): 16 fold
- more active than trovafloxacin (Streptococcus pneumoniae [1]; S. pneumoniae): four-fold
- MIC50 (Streptococcus pneumoniae [1]; [6]): 0.03 µg/mL (≈ 0.077 µM)
- MIC Range (Streptococcus pneumoniae [1]; [6]): ≤0.0015 to 0.12 µg/mL
- MIC90 (Streptococcus pneumoniae [1]; Erythromycin-resistant (86)): 0.03 µg/mL (≈ 0.077 µM)
- MIC90 (Streptococcus pneumoniae [1]; Erythromycin-sensitive (216)): 0.06 µg/mL (≈ 0.154 µM)
- MIC90 (Streptococcus pneumoniae [1]; Penicillin-intermediate (124)): 0.03 µg/mL (≈ 0.077 µM)
- MIC90 (Streptococcus pneumoniae [1]; Penicillin-resistant (80)): 0.06 µg/mL (≈ 0.154 µM)
- MIC90 (Streptococcus pneumoniae [1]; Penicillin-sensitive (98)): 0.06 µg/mL (≈ 0.154 µM)
- MIC90 (Streptococcus pneumoniae [1]; [6]): 0.06 µg/mL (≈ 0.154 µM)
- MIC50 (Proteus vulgaris; Proteus vulgaris): 0.125 µg/mL (≈ 0.321 µM)
- MIC Range (Proteus vulgaris; Proteus vulgaris (n=25)): 0.063 to 1 µg/mL
- MIC90 (Proteus vulgaris; Proteus vulgaris (n=25), read-out: MIC90): 0.25 µg/mL (≈ 0.642 µM)
- MIC Range (Streptococcus pneumoniae [2]; [7]): 0.004-0.125
- MIC Range (Streptococcus pneumoniae [2]; [8]): 0.002-0.19
- MIC50 (Streptococcus pneumoniae [2]; [7]): 0.064 µg/mL (≈ 0.164 µM)
- MIC90 (Streptococcus pneumoniae [2]; [7]): 0.23 µg/mL (≈ 0.591 µM)
- MIC50 (Streptococcus pneumoniae [2]; [8]): 0.032 µg/mL (≈ 0.0822 µM)
- MIC90 (Streptococcus pneumoniae [2]; [8]): 0.064 µg/mL (≈ 0.164 µM)
- tolerability [3]: well tolerated
- MIC50 (Proteus mirabilis; Proteus mirabilis): 0.125 µg/mL (≈ 0.321 µM)
- MIC Range (Proteus mirabilis; Proteus mirabilis (n=30)): 0.063 to 16 µg/mL
- MIC90 (Proteus mirabilis; Proteus mirabilis (n=30), read-out: MIC90): 0.25 µg/mL (≈ 0.642 µM)
- MIC50 (Salmonella spp.): 0.032 µg/mL (≈ 0.0822 µM)
- MIC90 (Salmonella spp.): 0.032 µg/mL (≈ 0.0822 µM)
- AUBTC (range) (P. aeruginosa): 48 (12-300)
- MIC50 (Providencia rettgeri; Providencia rettgeri): 0.125 µg/mL (≈ 0.321 µM)
- MIC90 (Providencia rettgeri; Providencia rettgeri (n=12)): 8 µg/mL (≈ 20.5 µM)
- MIC Range (Providencia rettgeri; Providencia rettgeri (n=12)): 0.063 to 16 µg/mL
- AUBTC (range) (S. aureus; S. aureus (13) Laboratory No. 636): 108 (0-408)
- AUBTC (range) (S. aureus; S. aureus (16) Laboratory No. 83): 540 (246-834)
- AUBTC (range) (S. aureus; S. aureus (16) Laboratory No. 161): 60 (0-144)
- MIC Range (Streptococcus pneumoniae [4]; [9]): 0.016 to 0.125 µg/mL
- MIC Range (Streptococcus pneumoniae [4]; [10]): ≤0.008 to 0.125 µg/mL
- MIC Range (Streptococcus pneumoniae [4]; [11]): ≤0.008 to 0.125 µg/mL
- MIC Range (Streptococcus pneumoniae [4]; [12]): 0.016 to 0.032 µg/mL
- MIC50 (Streptococcus pneumoniae [4]; [9]): 0.032 µg/mL (≈ 0.0822 µM)
- MIC90 (Streptococcus pneumoniae [4]; [9]): 0.032 µg/mL (≈ 0.0822 µM)
- MIC50 (Streptococcus pneumoniae [4]; [10]): 0.016 µg/mL (≈ 0.0411 µM)
- MIC90 (Streptococcus pneumoniae [4]; [10]): 0.032 µg/mL (≈ 0.0822 µM)
- MIC50 (Streptococcus pneumoniae [4]; [11]): 0.016 µg/mL (≈ 0.0411 µM)
- MIC90 (Streptococcus pneumoniae [4]; [11]): 0.032 µg/mL (≈ 0.0822 µM)
- MIC50 (Streptococcus pneumoniae [4]; [12]): 0.032 µg/mL (≈ 0.0822 µM)
- MIC90 (Streptococcus pneumoniae [4]; [12]): 0.032 µg/mL (≈ 0.0822 µM)
- MIC (Streptococcus pneumoniae [4]; strain TMS1): 0.032 µg/mL (≈ 0.0822 µM)
- MIC (Streptococcus pneumoniae [4]; strain TMS2): 0.5 µg/mL (≈ 1.28 µM)
- activity higher than that of the other quinolones (Streptococcus pneumoniae [4]; quinolone-resistant S. pneumoniae): 2-128 fold
- MIC Range [5]: 0.032 to 4 µg/mL
